Test results taken from paper PMC13261308, “Mapping Functionally Relevant Tractable Lysines of Challenging Protein Targets by Covalent Fragment Screening” (Chembiochem, 2026).

Assays:
[1] = HPLC-MS-based N-α-acetyl-lysine reactivity assay; conditions: pH 10.2, monitored for 24 h
Experimental: (§1) 1.2.1 HPLC-MS-based N-α-acetyl-lysine reactivity assay3
(§2) HPLC-MS measurements were performed using a Shimadzu LCMS-2020 device equipped with a positive–negative double ion source (DUIS±) and a quadrupole MS analyzer in the range of m/z 50–1000. The sample was eluted with gradient elution using eluent A (0.1% HCOOH in H2O) and eluent B (0.1% HCOOH in MeCN). The column temperature was always kept at 30 °C; the injection volume was 10 µL, and the flow rate was set to 1.5 mL/min. A Reprospher C18 (5 μm, 100 mm × 3 mm) column was used along with the following gradient. The in itial condition was 0% B eluent, followed by a linear gradient to 100% B eluent by 2 min; from 2 to […]
(§3) was restored and retained until 5 min.
(§4) For the reactivity and stability assay, in a glass LC-MS vial the internal standard (indoprofen or papaverine or 1,4-dicyanobenzene, 50 µL, 2 mM in acetonitrile) and the 100 mM BBS buffer […]
(§5) of reactivity or stability, respectively). Finally, to this mixture the corresponding electrophile was added (50 µl, 20 mM in acetonitrile) right before the measurement. The vial was mixed, then analyzed by HPLC-MS (10 µL injection volume) at intervals of approximately 60 min (0-4 h, 6 […]
(§6) Final volume was 1 mL. In the case of highly reactive compounds, the measurement was done within 1 h, monitored every 5 minutes. The AUC (area under the […]
(§7) corrected with the internal standard. The fragments’ AUC values were subjected to ordinary least-squares (OLS) linear regression, and to compute the important parameters (kinetic rate constant and half-life time), an Excel sheet was applied. The data are expressed as means of duplicate determination. The kinetic rate constant for the degradation and corrected N-α-acetyl-lysine reactivity were calculated as follows. The reaction half-life for pseudo-first-order reactions (t1/2) is ln 2/k, where k is the reaction rate. In the case of competing reactions (reaction with N-α-acetyl-lysine and degradation), the apparent reaction rate is kLys = kBlank + kBinding.
(§8) When half-lives are measured experimentally, t1/2(Lys) = ln 2/(kLys) = ln 2/(kBlank + kBinding). In our case, the corrected kBlank and kLys (regarding blank and N-α-acetyl lysine-containing samples, respectively) can be calculated by linear regression of the measured kinetic data points. […]

[2] = HPLC-MS-based stability (blank, without N-α-acetyl-lysine) in BBS buffer pH 10.2; conditions: pH 10.2 buffer without N-α-acetyl-lysine
Experimental: as §1, §2, §3, §4, §5, §6, §7, §8

Compound: O=Cc1c(O)cc(C(F)(F)F)cc1C(F)(F)F [compound 26]
- Lys-reactivity t1/2, pH 10.2 [1]: 40.93 h
- Stability t1/2, pH 10.2 [2]: 246.76 h

Compound: Cc1ccc(S(=O)(=O)N(CC#N)C(=O)Cc2cc(C(F)(F)F)cc(C(F)(F)F)c2)cc1 [compound 8]
- Lys-reactivity t1/2, pH 10.2 [1]: 0.26 h
- Stability t1/2, pH 10.2 [2]: 0.17 h

Compound: FC(F)=Cc1cc(C(F)(F)F)cc(C(F)(F)F)c1 [compound 17]
- Stability t1/2, pH 10.2 [2]: 3.32 h

Compound: C#Cc1ccc(C(F)(F)F)cc1C=O [compound 32]
- Lys-reactivity t1/2, pH 10.2 [1]: 0.23 h
- Stability t1/2, pH 10.2 [2]: 15.36 h

Compound: CC(=O)N(C(=O)c1cc(C(F)(F)F)cc(C(F)(F)F)c1)c1ccccc1 [compound 13]
- Lys-reactivity t1/2, pH 10.2 [1]: 0.27 h

Compound: FC(F)(F)c1cc(Nc2nc(Cl)nc(Cl)n2)cc(C(F)(F)F)c1 [compound 19]
- Stability t1/2, pH 10.2 [2]: 0.97 h

Compound: O=Cc1cc2ccccc2cc1C=O [compound 31, 2,3‐naphthalene‐dicarboxaldehyde]
- Stability t1/2, pH 10.2 [2]: 11.69 h

Compound: O=S(=O)(F)Oc1cc(C(F)(F)F)cc(C(F)(F)F)c1 [compound 4]
- Stability t1/2, pH 10.2 [2]: 4.94 h

Compound: COc1c(Nc2cc(C(F)(F)F)cc(C(F)(F)F)c2)c(=O)c1=O [compound 18]
- Stability t1/2, pH 10.2 [2]: 12.17 h

Compound: O=S(=O)(On1nnc2ccccc21)c1cc(C(F)(F)F)cc(C(F)(F)F)c1 [compound 6]
- Stability t1/2, pH 10.2 [2]: 0.35 h
